Assay results from BindingDB's records for patent US11912693 (Trevena, 2024).

How the values were obtained:
[1] = target: T1, Sphingosine 1-phosphate receptor 1 (Homo sapiens, UniProt P21453); test: Beta-Arrestin2 Recruitment Assay
Description: Agonist-promoted β-arrestin2 recruitment to the sphingosine-1-phosphate 1 receptor was determined using the β-arrestin PathHunter ) Detection kit (DiscoverX Corporation, Cat #: 93-0001). […] In cells that stably express these fusion proteins, stimulation with a cognate agonist results in the interaction of 0-arrestin2 and the Prolink -tagged GPCR. This allows the complementation of the two β-galactosidase fragments and results in the formation of a functional enzyme with β-galactosidase activity. […] Following a 60 minute incubation at 37 C. and 5% CO2 in a humidified CO2 and temperature-controlled incubator, the components of the β-arrestin PathHunter Detection kit were added as per the manufacturer's instructions. After an hour incubation at room temperature, plates were analyzed by a BMG PheraStar microplate reader.

[2] = target: T1, Sphingosine 1-phosphate receptor 1; test: Detecting Inhibition of cAMP Production
Description: Agonist-promoted G-protein responses were determined by measuring changes in intracellular cAMP using the HTRF cAMP HiRange kit (CisBio, Cat #: 62AM6PEJ) based on time-resolved fluorescence resonance energy transfer (TR-FRET) technology. […] Following a 30-minute incubation at 37 C. and 5% CO2 in a humidified CO2 and temperature-controlled incubator, the components of the cAMP HiRange kit were added as per the manufacturer's instructions. After an hour incubation at room temperature, plates were analyzed by a BMG PheraStar microplate reader.

T1 sequence (P21453 whole entry, the tested form may be a part): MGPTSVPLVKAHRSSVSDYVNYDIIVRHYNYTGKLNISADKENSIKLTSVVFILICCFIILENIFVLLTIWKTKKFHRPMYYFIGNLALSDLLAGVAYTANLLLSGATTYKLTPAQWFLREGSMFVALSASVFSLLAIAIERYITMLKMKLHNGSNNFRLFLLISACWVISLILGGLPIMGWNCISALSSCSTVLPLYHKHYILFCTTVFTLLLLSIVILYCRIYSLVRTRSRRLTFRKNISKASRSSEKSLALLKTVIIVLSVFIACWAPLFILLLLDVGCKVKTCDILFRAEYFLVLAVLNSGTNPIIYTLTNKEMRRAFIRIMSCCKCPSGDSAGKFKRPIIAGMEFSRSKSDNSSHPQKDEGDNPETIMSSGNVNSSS

Row | Compound | EC50 [1] [µM] | EC50 [2] [µM]
1 | CC(C)N1NNc2cc(-c3nc(-c4cccnc4Cl)no3)ccc21 [US11912693, Compound 499] | < 10 | < 0.316
2 | Cc1occc1-c1noc(-c2ccc3c(c2)NNN3C(C)C)n1 [US11912693, Compound 491] | < 10 | < 0.316
3 | Cc1cc(-c2noc(-c3ccc4c(c3)nnn4C3CCCC3)n2)ccn1 [US11912693, Compound 77] | > 10 | > 0.316
4 | Cc1cc(-c2noc(-c3ccc4c(c3)NNN4C(C)C)n2)c(C)o1 [US11912693, Compound 490] | < 10 | < 0.316
5 | Cc1ccccc1-c1nc(-c2ccc3c(c2)NNN3CC(C)(C)O)no1 [US11912693, Compound 593] | < 10 | < 0.316

Now from value to compound:

Row | EC50 [1] [µM] | EC50 [2] [µM] | Compound
6 | > 10 | > 0.316 | CC(C)N1NNc2cc(-c3nc(-c4cn[nH]c4)no3)ccc21 [US11912693, Compound 646]
7 | < 10 | < 0.316 | CC(C)n1nnc2cc(-c3nc(-c4ccccc4Cl)co3)ccc21 [US11912693, Compound 163]
8 | < 10 | < 0.316 | CC(C)N1NNc2cc(-c3nc(-c4sccc4Cl)co3)ccc21 [US11912693, Compound 463]
9 | > 10 | > 0.316 | Cc1cc(-c2noc(-c3ccc4c(c3)NNN4CC(C)(C)O)n2)c(C)o1 [US11912693, Compound 493]
